For 1 molecule, IC50 and inhibition results are on record in patent publication US20220041578A1, “ISOINDOLINE COMPOUND, AND PREPARATION METHOD, PHARMACEUTICAL COMPOSITION, AND APPLICATION OF ISOINDOLINE COMPOUND” (Shanghai Institute of Meteria Medica, Chinese Academy of …, priority 2018, published 2022).

One may read the inhibition as the change of the read-out against control, counted positive when it falls.

Common to all, as to type: cell-based
One assay has as its system MM.1S cells. Description: Effect of the compound on the proliferation of MM.1S cells (MTS). The settings on record: Homo sapiens, MM1.S, 168 h, 7 days, read-out: Cell inhibitory activity (IC50). An outline of the steps:
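In 1640 medium + 10% FBS, 20,000 cells per well were treated with 5-fold compound dilutions at 0.2% DMSO for 7 days at 37° C., 5% CO2. MTS was read after 3–4 h as OD490−OD690, inhibition was calculated against DMSO and blank wells, and IC50 was fitted; three independent experiments were run.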

For the next assay, the system named is MV-4-11 cells. Description: Effect of the compound on proliferation of MV-4-11 cells (MTS). The settings on record: Homo sapiens. The procedure: MV-4-11 cells were cultured with IMDM plus 10% fetal bovine serum and collected. The cell concentration was diluted according to the action time of 7 days, and 180 ul of cell suspension was added to each well of a 96-well cell plate to make the cell count to be 2000. 20 ul of DMSO with a final concentration of 0.2% was added to the control cell wells. The compound was diluted 5-fold with the 10 mM stock solution, and 20 ul was also added to the compound cell wells (the final concentration of DMSO was 0.2%). The cells were placed in a 37° C., 5% CO2 incubator and incubated for 7 days. After preparing the reaction solution according to the MTS kit (Promega, G5430), 20 μL was added to each well, incubated in a 37° C., 5% CO2 incubator for 3-4 h. Read the 490 nm absorbance value with a microtiter plate, and used the 690 nm absorbance value as the background value and OD490-OD690 as the final initial data. The formula for calculating the inhibition rate of the compound was: inhibition rate=(OD DMSO-ODcompound)/(ODDMSO-Oblank)×100%. The compound's proliferation inhibition IC50 was fitted by Graph Pad Prism 5.0. The experiment was repeated three times, and three parallel experiments were used to calculate the average and standard deviation each time. The cell viability test results were shown in Table 3: A means cell viability IC50<1 μM, B means cell viability 1 μM≤IC50≤20 μM, C means cell viability IC50>20 μM.

The test system of the next assay is TNF-α. Description: TNF-α activity inhibition experiment in LPS-stimulated PBMC (ELISA). The conditions noted are these: Homo sapiens, compound 10 nM, LPS 1 ug/ml, 72 hours, read-out: Inhibition rate of TNF-a (%). How it is done: All operations of this experiment were carried out according to the conventional experimental process of this kind of experiment at present. Peripheral blood from healthy volunteers was collected by routine standard procedure and cultured in 1640 medium (+10% FBS) to obtain PBMC. After recovery, PBMC was centrifuged and resuspended in serum-free medium. After counting, adjusted the density to be 6.25×10^5/ml; then inoculated 160 ul to a 96-well plate, 1×10^5/well; 20 ul 10× compound and DMSO were added, and incubated for 1 hour in an incubator; then 20 ul 10 XLPS was added resulting the final concentration of 1 ug/ml and incubated in an incubator for 72 hours. Centrifuged the cell plate at 1500 rpm and aspirated 50 ul supernatant according to the ELISA operation. After operating according to the kit, a microplate reader was used to read at 450 nm. The concentration of compound was 10 nM, and DMSO was added as control group. Materials used in this experiment: 96 well plate (Corning, #3599), ELISA kit (Thermo), LPS (Sigma, USA).
For orientation: In an ELISA, binding on a coated surface is turned into a signal by an enzyme label.

The subject of assay [1] is Colorectal cancer cells HCT-116. Description: Proliferation of other tumor cells, HCT-116 (WST-8). The conditions noted are these: Homo sapiens, 96 h, HCT-116 cells, 4 days, read-out: Inhibitory activity on proliferation, HCT-116 (IC50). How it is done:
(§1) The human triple negative breast cancer cells MDA-MB-468 and MDA-MB-231 used in this experiment were purchased from the Shanghai Cell Bank, in which L-15 medium added with 10% fetal bovine serum (FBS) and 1% double antibody was used. At 37° C., MDA-MB-468 and MDA-MB-231 cells were cultured in an incubator without CO2. Colorectal cancer cells HCT-116 were cultured in McCOY's 5A medium with 1% double antibody and 10% fetal bovine serum (FBS); prostate cancer cells DU145 were cultured in MEM medium with 1% double antibody and 10% fetal bovine serum (FBS); prostate cancer cells PC-3 were cultured in F-12 K medium with 1% double antibody and 10% fetal bovine serum (FBS); grew at 37° C., 5% CO2.
(§2) In the cell activity test experiment, 90 μL cell suspension with appropriate concentration was added to a 96-well cell culture plate according to the cell growth, each compound to be tested was gradient diluted with the corresponding medium, 10 μL diluted compound was added to 90 μL cells, and then incubated at 37° C. for 4 days. Cell proliferation was analyzed by WST-8, which could be reduced by lactate dehydrogenase in the cells to a yellow formazan. 10 μL of WST-8 reagent (DOJINDO) was added to the cells and reacted for more than 1 hour at 37° C., DMSO-treated cells were used as […]. The absorption value of 490 nm was read by enzyme-labeled plate, and the absorption value of 690 nm was taken as the background value, and OD490-OD690 was taken as the final original data, and the data was processed by GraphPad Prism6 software. The formula for calculating the inhibition rate of the compound was: inhibition rate=(ODDMSO−ODcompound)/(ODDMSO−Oblank)×100%. The compound's proliferation inhibition IC50 was fitted by Graph Pad Prism 5.0. The experiment was repeated three times, and three parallel experiments were used to calculate the average and standard deviation each time. The cell viability test results were shown in Table 4: A means cell viability IC50<1 μM, B means cell viability 1 μM≤IC50≤20 μM, C means cell viability IC50>20 μM, NT means not tested.
On the technique in general: Tetrazolium assays rely on reduction of a dye to a coloured formazan, in cell work by metabolically active cells.

The test system of assay [2] is triple negative breast cancer cells MDA-MB-231. Description: Proliferation of other tumor cells, MDA-MB-231 (WST-8). The settings on record: Homo sapiens, 96 h, MDA-MB-231 cells, 4 days, read-out: Inhibitory activity on proliferation, MDA-MB-231 (IC50). How it is done:
as §1, §2

Read-outs that look alike come from different tables or passages of the source. Where only a bound is given, the exact number is not on record here.

As for `Nc1cccc2c1CN(C1CCC(=O)NC1=O)C2=O` (stereo not drawn) [Lenalidomide, lenalidomide, reference compound], the IC50 in the assay on MM.1S cells was less than 0.15 µM; with MV-4-11 cells (MV4-11, 168 h, 7 days, MTS, read-out: Inhibitory activity (IC50)), more than 20 µM; in the assay on MV-4-11 cells (MV4-11, read-out: cytostatic activity (IC50) on MV-4-11 cells) it was more than 20 µM; in assay [1], more than 20 µM; in assay [2], more than 20 µM. In addition, the inhibition at 0.01 µM with TNF-α was less than 50%.
